Consider 40 compounds from patent US8802700B2 (Vertex Pharmaceuticals Incorporated, priority 2010, dated 2014).

Molecules are shown by their SMILES. A value given as a limit tells only on which side of the number the result lay.

T1 sequence (P13569 with tags, fused parts or gaps DEL508-508): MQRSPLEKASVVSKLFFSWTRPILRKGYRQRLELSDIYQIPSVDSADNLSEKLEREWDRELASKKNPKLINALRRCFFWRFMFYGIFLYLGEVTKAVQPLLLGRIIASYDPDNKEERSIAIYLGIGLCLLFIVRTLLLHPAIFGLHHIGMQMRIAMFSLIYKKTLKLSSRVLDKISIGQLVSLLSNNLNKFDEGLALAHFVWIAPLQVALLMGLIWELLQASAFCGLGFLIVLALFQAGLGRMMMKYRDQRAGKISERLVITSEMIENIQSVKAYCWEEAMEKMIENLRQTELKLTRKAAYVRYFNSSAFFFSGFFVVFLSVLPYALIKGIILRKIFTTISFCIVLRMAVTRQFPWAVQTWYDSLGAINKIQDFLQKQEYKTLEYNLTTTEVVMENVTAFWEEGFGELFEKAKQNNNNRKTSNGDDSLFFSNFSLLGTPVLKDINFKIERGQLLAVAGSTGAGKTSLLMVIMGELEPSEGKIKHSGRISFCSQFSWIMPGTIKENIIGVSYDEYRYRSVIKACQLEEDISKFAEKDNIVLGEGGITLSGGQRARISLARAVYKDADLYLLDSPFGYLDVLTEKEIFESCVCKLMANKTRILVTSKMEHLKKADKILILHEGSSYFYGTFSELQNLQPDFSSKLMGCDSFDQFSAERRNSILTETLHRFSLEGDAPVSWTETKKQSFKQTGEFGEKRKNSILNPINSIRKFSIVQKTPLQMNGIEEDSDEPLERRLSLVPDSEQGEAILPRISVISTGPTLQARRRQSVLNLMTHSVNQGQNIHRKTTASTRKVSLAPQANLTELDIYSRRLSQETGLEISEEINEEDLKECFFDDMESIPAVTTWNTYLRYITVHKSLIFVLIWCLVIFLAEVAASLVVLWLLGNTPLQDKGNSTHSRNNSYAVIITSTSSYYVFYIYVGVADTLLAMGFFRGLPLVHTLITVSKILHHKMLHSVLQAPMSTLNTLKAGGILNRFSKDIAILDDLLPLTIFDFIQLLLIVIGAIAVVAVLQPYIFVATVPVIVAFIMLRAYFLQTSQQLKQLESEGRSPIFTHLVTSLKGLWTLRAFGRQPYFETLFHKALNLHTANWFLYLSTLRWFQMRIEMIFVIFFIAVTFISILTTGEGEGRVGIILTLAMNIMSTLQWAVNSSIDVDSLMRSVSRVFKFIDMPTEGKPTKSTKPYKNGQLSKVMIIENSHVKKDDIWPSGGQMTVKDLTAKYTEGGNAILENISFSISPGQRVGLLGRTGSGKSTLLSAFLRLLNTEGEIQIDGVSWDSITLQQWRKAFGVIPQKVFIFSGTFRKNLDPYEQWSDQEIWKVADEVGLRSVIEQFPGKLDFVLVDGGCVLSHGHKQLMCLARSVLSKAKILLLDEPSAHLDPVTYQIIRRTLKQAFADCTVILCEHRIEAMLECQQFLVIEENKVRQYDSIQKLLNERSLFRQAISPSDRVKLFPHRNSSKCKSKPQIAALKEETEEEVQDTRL

The first experiment addresses T1, ΔF508-CFTR (Homo sapiens, UniProt P13569, DEL508-508).
T1 construct: expressed in transfected cells
As to the kind of experiment: Membrane potential optical assay (FRET voltage-sensor dyes, VIPR), identification of potentiator compounds. The class given is cell-based. The following applies: Table 3; assay not given. The essentials:
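NIH3T3 mouse fibroblasts stably expressing ΔF508-CFTR, cultured 24 h at 27 °C, were loaded with FRET voltage dyes CC2-DMPE and DiSBAC2(3). Double-addition format: first addition of Cl⁻-free (gluconate) medium with or without compound; membrane-potential change read as fluorescence on VIPR II.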
On to `O=C(Nc1ccccc1-c1ccncc1)c1c[nH]c2ccccc2c1=O` [Compound 70, 4-oxo-N-[2-(4-pyridyl)phenyl]-1H-quinoline-3-carboxamide], for which the EC50 was 10 to 25 µM.
Same read-out and setting: the result for `CCOC(=O)Nc1cc(NC(=O)c2c[nH]c3ccccc3c2=O)ccc1CC` [Compound 298, [2-ethyl-5-[(4-oxo-1H-quinolin-3-yl)carbonylamino]phenyl]aminoformic acid ethyl ester] reads below 10 µM.
`CCc1ccc(NC(=O)c2c[nH]c3ccccc3c2=O)cc1` [Compound 463, N-(4-ethylphenyl)-4-oxo-1H-quinoline-3-carboxamide]: the EC50 was below 10 µM.

The same experiment, now with this note: Table 3; assay not given; read-out: % Activity (% Efficacy, relative efficacy).
As to `O=C(Nc1ccccc1-c1ccncc1)c1c[nH]c2ccccc2c1=O` [Compound 70, 4-oxo-N-[2-(4-pyridyl)phenyl]-1H-quinoline-3-carboxamide], the Emax lay within 25 to 100%.
The same measure, in the same setting: the result for `O=C(Nc1ccc(-c2ccccc2)cn1)c1c[nH]c2ccccc2c1=O` [Compound 402, 4-oxo-N-(5-phenyl-2-pyridyl)-1H-quinoline-3-carboxamide] reads below 25%; that for `CC(C)(C)OC(=O)NCc1cc(NC(=O)c2c[nH]c3ccccc3c2=O)ccc1C(C)(C)C` [Compound 465, [5-[(4-oxo-1H-quinolin-3-yl)carbonylamino]-2-tert-butyl-phenyl]methylaminoformic acid tert-butyl ester], 25 to 100%; that for `O=C(Nc1cccc(S(=O)(=O)N2CCCCC2)c1)c1c[nH]c2ccccc2c1=O` [Compound 442, 4-oxo-N-[3-(1-piperidylsulfonyl)phenyl]-1H-quinoline-3-carboxamide], below 25%.
Consider `CC(C)(C)c1cc(C(C)(C)C)c(NC(=O)c2c[nH]c3cc(O)ccc3c2=O)cc1O` [Compound 652, 7-hydroxy-N-(5-hydroxy-2,4-ditert-butyl-phenyl)-4-oxo-1H-quinoline-3-carboxamide], for which the Emax fell in the range of 25 to 100%.
Still for that read-out and setting: the value for `COc1cccc(NC(=O)c2c[nH]c3ccccc3c2=O)c1` [Compound 408, N-(3-methoxyphenyl)-4-oxo-1H-quinoline-3-carboxamide] was 25 to 100%; that for `O=C(Nc1cc(O)cc(C(F)(F)F)c1)c1c[nH]c2cccc(O)c2c1=O` [Compound 599, 5-hydroxy-N-[3-hydroxy-5-(trifluoromethyl)phenyl]-4-oxo-1H-quinoline-3-carboxamide] was 25 to 100%; that for `O=C(Nc1cccc(OC(F)(F)F)c1)c1c[nH]c2ccccc2c1=O` [Compound 62, 4-oxo-N-[3-(trifluoromethoxy)phenyl]-1H-quinoline-3-carboxamide] was 25 to 100%.
For `CC(C)(C)c1cc2cc[nH]c2cc1NC(=O)c1c[nH]c2ccc(F)cc2c1=O` [Compound 124, 6-fluoro-4-oxo-N-(5-tert-butyl-1H-indol-6-yl)-1H-quinoline-3-carboxamide], the Emax is above 100%.
As for `CCc1cccc(C(C)CC)c1NC(=O)c1c[nH]c2ccccc2c1=O` (stereo not shown) [Compound 322, N-(2-ethyl-6-sec-butyl-phenyl)-4-oxo-1H-quinoline-3-carboxamide], the Emax fell in the range of 25 to 100%.
The same measure, in the same setting: the result for `COc1ccc2[nH]cc(C(=O)Nc3ccc(N4[C@H](C)CC[C@H]4C)cc3C(F)(F)F)c(=O)c2c1` [Compound 685, N-(4-((2R,5R)-2,5-dimethylpyrrolidin-1-yl)-2-(trifluoromethyl)phenyl)-6-methoxy-4-oxo-1,4-dihydroquinoline-3-carboxamide] reads 25 to 100%; that for `O=C(Nc1cccc2[nH]ccc12)c1c[nH]c2ccccc2c1=O` [Compound 100, N-(1H-indol-4-yl)-4-oxo-1H-quinoline-3-carboxamide], below 25%; that for `CN(C)[C@H]1CCN(c2ccc(NC(=O)c3c[nH]c4ccccc4c3=O)c(C(F)(F)F)c2)C1` [Compound 513, (S)-N-(4-(3-(dimethylamino)pyrrolidin-1-yl)-2-(trifluoromethyl)phenyl)-4-oxo-1,4-dihydroquinoline-3-carboxamide], 25 to 100%.
Turning to `CC(C)(C)c1cc(C(C)(C)C)c(NC(=O)c2c[nH]c3cc(OC(F)(F)F)ccc3c2=O)cc1O` [Compound 694, N-(5-hydroxy-2,4-ditert-butyl-phenyl)-4-oxo-7-(trifluoromethoxy)-1H-quinoline-3-carboxamide], the Emax fell in the range of 25 to 100%.
With `CC(C)(C)c1ccc(NC(=O)c2c[nH]c3ccccc3c2=O)c(C(C)(C)C)c1O` [Compound 594, N-(3-hydroxy-2,4-ditert-butyl-phenyl)-4-oxo-1H-quinoline-3-carboxamide], the Emax is above 100%.
Same read-out and setting: the value for `CCCc1ccccc1NC(=O)c1c[nH]c2ccccc2c1=O` [Compound 16, 4-oxo-N-(2-propylphenyl)-1H-quinoline-3-carboxamide] was 25 to 100%; that for `O=C(Nc1ccccc1-c1nc2ccccc2[nH]1)c1c[nH]c2ccccc2c1=O` [Compound 227, N-[2-(3H-benzoimidazol-2-yl)phenyl]-4-oxo-1H-quinoline-3-carboxamide] was below 25%.
Same read-out and setting: the result for `COC(=O)c1c(NC(=O)c2c[nH]c3ccccc3c2=O)csc1C(C)(C)C` [Compound 690, methyl 4-[(4-oxo-1H-quinolin-3-yl)carbonylamino]-2-tert-butyl-thiophene-3-carboxylate] reads 25 to 100%.
On the same count and under the same terms, the result for `O=C(Nc1cc(NS(=O)(=O)CCN2CCOCC2)cc(C(F)(F)F)c1)c1c[nH]c2ccccc2c1=O` [Compound 272, N-[3-(2-morpholinoethylsulfonylamino)-5-(trifluoromethyl)phenyl]-4-oxo-1H-quinoline-3-carboxamide] reads 25 to 100%; that for `O=C(Nc1ccccc1OCc1ccccc1)c1c[nH]c2ccccc2c1=O` [Compound 240, N-(2-benzyloxyphenyl)-4-oxo-1H-quinoline-3-carboxamide], 25 to 100%.
As for `Cc1ccc(NC(=O)c2c[nH]c3ccccc3c2=O)cc1` [Compound 31, 4-oxo-N-(p-tolyl)-1H-quinoline-3-carboxamide], the Emax lay within 25 to 100%.
The same measure, in the same setting: the result for `CC(C)(C)c1cc(Cl)c(O)cc1NC(=O)c1c[nH]c2ccccc2c1=O` [Compound 426, N-(4-chloro-5-hydroxy-2-tert-butyl-phenyl)-4-oxo-1H-quinoline-3-carboxamide] reads 25 to 100%; that for `CCOC(=O)Nc1cc(NC(=O)c2c[nH]c3ccccc3c2=O)ccc1CC` [Compound 298, [2-ethyl-5-[(4-oxo-1H-quinolin-3-yl)carbonylamino]phenyl]aminoformic acid ethyl ester], 25 to 100%.
On the same count and under the same terms, the result for `Cc1c(NC(=O)c2c[nH]c3ccccc3c2=O)cccc1C(F)(F)F` [Compound 387, N-[2-methyl-3-(trifluoromethyl)phenyl]-4-oxo-1H-quinoline-3-carboxamide] reads 25 to 100%.
On the same count and under the same terms, the value for `Cc1cccc2[nH]cc(C(=O)Nc3ccc(N4[C@H](C)CC[C@H]4C)cc3C(F)(F)F)c(=O)c12` [Compound 539, N-(4-((2R,5R)-2,5-dimethylpyrrolidin-1-yl)-2-(trifluoromethyl)phenyl)-5-methyl-4-oxo-1,4-dihydroquinoline-3-carboxamide] was 25 to 100%; that for `Cc1c[nH]c2cc(NC(=O)c3c[nH]c4ccccc4c3=O)ccc12` [Compound 113, N-(3-methyl-1H-indol-6-yl)-4-oxo-1H-quinoline-3-carboxamide] was 25 to 100%; that for `COc1cc(NC(=O)c2c[nH]c3ccccc3c2=O)c(C(F)(F)F)cc1C(C)(C)C` [Compound 421, N-[5-methoxy-4-tert-butyl-2-(trifluoromethyl)phenyl]-4-oxo-1H-quinoline-3-carboxamide] was 25 to 100%.
For `CC(C)(C)c1cc(C(C)(C)C)c(C(F)F)cc1NC(=O)c1c[nH]c2ccccc2c1=O` [Compound 438, N-[5-(difluoromethyl)-2,4-ditert-butyl-phenyl]-4-oxo-1H-quinoline-3-carboxamide], the Emax lay in the range of 25 to 100%.
Same read-out and setting: the result for `O=C(Nc1ccc(C(F)(F)F)c(O)c1)c1c[nH]c2ccc(F)cc2c1=O` [Compound 650, 6-fluoro-N-[3-hydroxy-4-(trifluoromethyl)phenyl]-4-oxo-1H-quinoline-3-carboxamide] reads 25 to 100%; that for `O=C(Nc1ccccc1-c1ccccc1)c1c[nH]c2ccccc2c1=O` [Compound 461, 4-oxo-N-(2-phenylphenyl)-1H-quinoline-3-carboxamide], 25 to 100%.
For the compound `O=C(Nc1ccccc1-c1ccccc1OC(F)(F)F)c1c[nH]c2ccccc2c1=O` [Compound 156, 4-oxo-N-[2-[2-(trifluoromethoxy)phenyl]phenyl]-1H-quinoline-3-carboxamide], the Emax lay in the range of 25 to 100%.
The same measure, in the same setting: the result for `COc1ccc(Cl)cc1-c1cc2cc[nH]c2cc1NC(=O)c1c[nH]c2ccccc2c1=O` [Compound 1, N-[5-(5-chloro-2-methoxy-phenyl)-1H-indol-6-yl]-4-oxo-1H-quinoline-3-carboxamide] reads 25 to 100%; that for `Nc1cc(NC(=O)c2c[nH]c3ccccc3c2=O)c(Cl)cc1Cl` [Compound 242, N-(5-amino-2,4-dichloro-phenyl)-4-oxo-1H-quinoline-3-carboxamide], 25 to 100%.
On the same count and under the same terms, the result for `O=C(Nc1ccc(Cl)nc1)c1c[nH]c2ccccc2c1=O` [Compound 392, N-(6-chloro-3-pyridyl)-4-oxo-1H-quinoline-3-carboxamide] reads below 25%; that for `O=C(Nc1ccc(Oc2cccnc2)cc1)c1c[nH]c2ccccc2c1=O` [Compound 614, 4-oxo-N-[4-(3-pyridyloxy)phenyl]-1H-quinoline-3-carboxamide], 25 to 100%; that for `Cc1cccc2[nH]cc(C(=O)Nc3ccc(N4CC[C@H](F)C4)cc3C(F)(F)F)c(=O)c12` [Compound 626, (S)-N-(4-(3-fluoropyrrolidin-1-yl)-2-(trifluoromethyl)phenyl)-5-methyl-4-oxo-1,4-dihydroquinoline-3-carboxamide], 25 to 100%.
Regarding `CCCCc1ccccc1NC(=O)c1c[nH]c2ccccc2c1=O` [Compound 336, N-(2-butylphenyl)-4-oxo-1H-quinoline-3-carboxamide], the Emax was in the range of 25 to 100%.
Regarding `O=C(Nc1cccnc1Oc1ccccc1F)c1c[nH]c2ccccc2c1=O` [Compound 435, N-[2-(2-fluorophenoxy)-3-pyridyl]-4-oxo-1H-quinoline-3-carboxamide], the Emax is 25 to 100%.
The same measure, in the same setting: the value for `CCc1ccc(NC(=O)c2c[nH]c3ccccc3c2=O)cc1` [Compound 463, N-(4-ethylphenyl)-4-oxo-1H-quinoline-3-carboxamide] was 25 to 100%.
Consider `O=C(Nc1ccc2cc[nH]c2c1)c1c(C(F)(F)F)[nH]c2ccccc2c1=O` [Compound 184, N-(1H-indol-6-yl)-4-oxo-2-(trifluoromethyl)-1H-quinoline-3-carboxamide], for which the Emax was below 25%.
